Earlier results, collected in patent US20130150444A1, “MODIFIED RELEASE COMPOSITIONS OF MAGNESIUM VALPROATE” (CADILA HEALTHCARE LIMITED, priority 2011, published 2013).

Conditions: in comparison with sodium valproate or valproic acid

magnesium 2-propylvalerate [magnesium valproate]
absorption rate: slower and more regular
